Measurements: article PMC12827894, “Structure-guided design of picomolar-level macrocyclic TRPC5 channel inhibitors with antidepressant activity” (Acta Pharmaceutica Sinica. B, 2025)

Assays:
TRPC5 = molecular target: T1, TRPC5 (Homo sapiens, UniProt Q9UL62); format: cell-based; conditions: 100 nmol/L EA; read-out: IC50, TRPC5, whole-cell patch-clamp
T1 sequence (Q9UL62 1-973): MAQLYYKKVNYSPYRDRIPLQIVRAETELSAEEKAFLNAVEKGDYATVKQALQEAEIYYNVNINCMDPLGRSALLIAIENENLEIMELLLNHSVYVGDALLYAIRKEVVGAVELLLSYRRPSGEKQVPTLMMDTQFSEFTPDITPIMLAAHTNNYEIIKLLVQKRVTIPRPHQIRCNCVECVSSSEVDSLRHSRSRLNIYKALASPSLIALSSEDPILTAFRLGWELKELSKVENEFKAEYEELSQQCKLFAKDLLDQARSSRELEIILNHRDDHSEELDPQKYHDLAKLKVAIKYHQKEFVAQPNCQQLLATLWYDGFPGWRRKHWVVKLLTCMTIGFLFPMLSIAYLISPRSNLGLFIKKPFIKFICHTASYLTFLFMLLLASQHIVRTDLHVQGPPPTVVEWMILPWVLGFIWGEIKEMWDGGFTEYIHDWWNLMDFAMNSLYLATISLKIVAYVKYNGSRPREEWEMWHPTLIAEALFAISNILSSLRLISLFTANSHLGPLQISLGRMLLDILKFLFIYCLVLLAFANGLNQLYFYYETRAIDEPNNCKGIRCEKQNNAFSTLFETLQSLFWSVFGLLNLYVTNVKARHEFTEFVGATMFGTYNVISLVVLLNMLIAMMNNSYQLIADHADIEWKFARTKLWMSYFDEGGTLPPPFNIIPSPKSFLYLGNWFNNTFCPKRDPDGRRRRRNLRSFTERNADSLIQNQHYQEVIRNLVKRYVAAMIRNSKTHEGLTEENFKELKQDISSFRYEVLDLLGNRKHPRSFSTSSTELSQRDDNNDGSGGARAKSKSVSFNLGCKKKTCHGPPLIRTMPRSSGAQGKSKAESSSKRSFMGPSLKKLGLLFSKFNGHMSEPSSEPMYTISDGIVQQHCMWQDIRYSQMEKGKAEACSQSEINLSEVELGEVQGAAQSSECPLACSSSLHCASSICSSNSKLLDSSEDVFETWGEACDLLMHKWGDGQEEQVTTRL

TRPC1/5 = molecular target: T2, TRPC1/5 (Homo sapiens, UniProt P48995+Q9UL62); experiment: Whole-cell patch-clamp, TRPC1/5 heteromer, 100 nmol/L EA; format: cell-based; conditions: read-out: IC50, TRPC1/5
T2 construct: full-length wild-type or mutant TRPC5 was cloned into a pcDNA3.1 vector; expressed in transfected cells; host or cells: HEK293T
Description: Given that TRPC4 and TRPC5 are highly similar and often form heteromeric with TRPC1, we evaluated JDIC-127's activity on TRPC4, TRPC1/4, and TRPC1/5 using whole-cell patch-clamp recordings under agonist stimulation with 100 nmol/L EA in HEK293T cells. […].
For electrophysiological activity testing of compounds against TRPC4 and TRPC5, stably expressed TRPC5 or TRPC4 cells were used for whole-cell patch-clamp recordings, employing a HEKA EPC10 amplifier and […] software (https://www.heka.com/downloads/downloads_main.html#down_patchmaster). Prior to recording, cells were induced with 1 μg/mL tetracycline for 24 h. For TRPC1/4 or TRPC1/5 heteromers, plasmids TRPC1 and TRPC5 or TRPC1 and TRPC4 were co-transfected into HEK293T cells. After 48 to 72 h of transfection, testing was performed. A 1-s ramp protocol from −100 to +100 mV at 0.2 Hz was applied, as previously described. The extracellular solution consisted of 140 mmol/L NaCl, 1 mmol/L MgCl2, 2 mmol/L CaCl2, 10 mmol/L Hepes, 5 mmol/L KCl, and 10 mmol/L D-glucose, with pH adjusted to 7.4 using NaOH. […] The half-maximal inhibitory concentration (IC50) of drugs was determined by recording currents at a +100 mV pulse and analyzing current amplitudes at varying drug concentrations, with IC50 values calculated using the Hill equation. […]

α1A = α1A (Homo sapiens, UniProt P35348); experiment: cell-based; format: cell-based
D2 = molecular target: T3, D2 (Homo sapiens, UniProt P14416); experiment: cell-based; format: cell-based
T3 construct: purchased ICE Bioscience ICESTP™ SafetyOne44 Panel

ETA = molecular target: T4, ETA (Homo sapiens, UniProt P25101); experiment: SafetyOne44 panel: ETA; format: cell-based; conditions: ETA, 10 μmol/L
T4 construct: purchased ICE Bioscience ICESTP™ SafetyOne44 Panel
T4 sequence (P25101 21-427): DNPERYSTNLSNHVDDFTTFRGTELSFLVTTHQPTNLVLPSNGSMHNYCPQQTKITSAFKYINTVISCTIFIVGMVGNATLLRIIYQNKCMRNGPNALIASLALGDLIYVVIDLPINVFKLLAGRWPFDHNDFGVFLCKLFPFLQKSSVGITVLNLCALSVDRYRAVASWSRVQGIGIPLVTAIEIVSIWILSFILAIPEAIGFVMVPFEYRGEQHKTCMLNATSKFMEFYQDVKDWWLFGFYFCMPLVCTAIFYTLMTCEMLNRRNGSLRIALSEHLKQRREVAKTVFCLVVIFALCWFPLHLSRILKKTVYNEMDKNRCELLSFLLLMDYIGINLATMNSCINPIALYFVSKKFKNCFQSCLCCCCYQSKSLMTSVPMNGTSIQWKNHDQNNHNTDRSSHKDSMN

nAChRα4β2 = molecular target: T5, nAChRα4β2 (Homo sapiens, UniProt P17787+P43681); experiment: SafetyOne44 panel ion channels: nAChRα4β2; format: cell-based; conditions: 5 μmol/L
T5 construct: ICE Bioscience ICESTP SafetyOne44 Panel

H1 = H1 (Homo sapiens, UniProt P35367); experiment: cell-based; conditions: read-out: Antagonist JDIC-127 @10 μmol/L
hERG = hERG (Homo sapiens, UniProt Q12809); format: cell-based; design: purchased ICE Bioscience ICESTP SafetyOne44 Panel
Sequence of hERG (Q12809 whole entry): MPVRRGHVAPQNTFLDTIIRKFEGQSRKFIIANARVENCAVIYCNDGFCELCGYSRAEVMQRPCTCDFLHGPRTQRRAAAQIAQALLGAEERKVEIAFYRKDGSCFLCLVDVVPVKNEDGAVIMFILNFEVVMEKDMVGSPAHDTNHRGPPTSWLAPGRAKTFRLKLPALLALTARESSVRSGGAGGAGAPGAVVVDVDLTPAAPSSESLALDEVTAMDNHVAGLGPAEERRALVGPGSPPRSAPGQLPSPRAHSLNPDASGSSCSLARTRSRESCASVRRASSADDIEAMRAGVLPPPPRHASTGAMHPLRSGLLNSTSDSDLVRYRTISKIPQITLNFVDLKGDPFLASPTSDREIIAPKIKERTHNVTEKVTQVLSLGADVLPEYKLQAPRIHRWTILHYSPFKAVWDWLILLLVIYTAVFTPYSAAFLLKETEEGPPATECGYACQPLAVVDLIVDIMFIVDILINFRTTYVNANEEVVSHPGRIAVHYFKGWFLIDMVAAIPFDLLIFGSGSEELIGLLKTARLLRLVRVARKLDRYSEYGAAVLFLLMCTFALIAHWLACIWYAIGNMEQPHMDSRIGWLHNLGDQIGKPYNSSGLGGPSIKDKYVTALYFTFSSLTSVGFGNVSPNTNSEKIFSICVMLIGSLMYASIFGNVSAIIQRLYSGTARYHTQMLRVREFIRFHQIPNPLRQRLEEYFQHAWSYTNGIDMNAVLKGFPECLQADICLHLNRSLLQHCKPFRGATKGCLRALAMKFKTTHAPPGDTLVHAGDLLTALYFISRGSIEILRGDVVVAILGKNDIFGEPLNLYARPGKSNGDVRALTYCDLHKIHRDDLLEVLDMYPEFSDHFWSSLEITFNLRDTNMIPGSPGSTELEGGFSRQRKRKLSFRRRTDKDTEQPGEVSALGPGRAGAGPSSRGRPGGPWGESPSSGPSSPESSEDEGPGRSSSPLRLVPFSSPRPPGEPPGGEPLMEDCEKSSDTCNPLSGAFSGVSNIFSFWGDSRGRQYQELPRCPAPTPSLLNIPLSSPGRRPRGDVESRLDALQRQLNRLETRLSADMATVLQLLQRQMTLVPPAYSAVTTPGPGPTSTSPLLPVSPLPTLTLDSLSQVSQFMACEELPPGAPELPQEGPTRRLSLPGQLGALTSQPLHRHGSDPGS

T5 sequence (P43681 29-627 limits assumed): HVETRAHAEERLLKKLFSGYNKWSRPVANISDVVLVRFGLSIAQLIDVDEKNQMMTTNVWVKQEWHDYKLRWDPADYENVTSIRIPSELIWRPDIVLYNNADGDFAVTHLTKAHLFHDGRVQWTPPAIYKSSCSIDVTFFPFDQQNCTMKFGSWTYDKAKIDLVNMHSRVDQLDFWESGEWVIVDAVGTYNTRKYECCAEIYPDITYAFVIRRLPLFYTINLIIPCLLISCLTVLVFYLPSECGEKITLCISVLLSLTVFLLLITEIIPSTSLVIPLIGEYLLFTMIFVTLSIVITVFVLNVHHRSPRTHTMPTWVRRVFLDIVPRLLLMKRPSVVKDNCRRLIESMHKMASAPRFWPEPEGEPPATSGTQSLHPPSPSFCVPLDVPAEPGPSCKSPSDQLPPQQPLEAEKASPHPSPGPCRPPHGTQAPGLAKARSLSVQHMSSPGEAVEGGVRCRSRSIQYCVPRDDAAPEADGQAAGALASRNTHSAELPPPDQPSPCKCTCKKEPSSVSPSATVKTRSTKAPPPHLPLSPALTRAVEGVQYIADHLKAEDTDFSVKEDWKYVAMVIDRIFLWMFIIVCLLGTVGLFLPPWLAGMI
T5 sequence (P17787 26-502): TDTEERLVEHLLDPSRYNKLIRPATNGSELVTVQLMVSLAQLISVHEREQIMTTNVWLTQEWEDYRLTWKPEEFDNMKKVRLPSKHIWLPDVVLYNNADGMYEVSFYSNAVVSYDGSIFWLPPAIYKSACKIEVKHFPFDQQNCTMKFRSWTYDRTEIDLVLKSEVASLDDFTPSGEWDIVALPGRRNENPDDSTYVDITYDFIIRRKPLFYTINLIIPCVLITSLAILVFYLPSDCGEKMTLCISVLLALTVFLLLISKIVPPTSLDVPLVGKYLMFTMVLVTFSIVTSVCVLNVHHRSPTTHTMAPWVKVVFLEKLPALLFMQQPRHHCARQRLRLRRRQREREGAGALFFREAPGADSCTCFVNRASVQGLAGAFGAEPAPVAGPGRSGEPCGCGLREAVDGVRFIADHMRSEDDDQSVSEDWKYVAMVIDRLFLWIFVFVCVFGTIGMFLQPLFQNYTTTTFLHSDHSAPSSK
Sequence of α1A (P35348 whole entry): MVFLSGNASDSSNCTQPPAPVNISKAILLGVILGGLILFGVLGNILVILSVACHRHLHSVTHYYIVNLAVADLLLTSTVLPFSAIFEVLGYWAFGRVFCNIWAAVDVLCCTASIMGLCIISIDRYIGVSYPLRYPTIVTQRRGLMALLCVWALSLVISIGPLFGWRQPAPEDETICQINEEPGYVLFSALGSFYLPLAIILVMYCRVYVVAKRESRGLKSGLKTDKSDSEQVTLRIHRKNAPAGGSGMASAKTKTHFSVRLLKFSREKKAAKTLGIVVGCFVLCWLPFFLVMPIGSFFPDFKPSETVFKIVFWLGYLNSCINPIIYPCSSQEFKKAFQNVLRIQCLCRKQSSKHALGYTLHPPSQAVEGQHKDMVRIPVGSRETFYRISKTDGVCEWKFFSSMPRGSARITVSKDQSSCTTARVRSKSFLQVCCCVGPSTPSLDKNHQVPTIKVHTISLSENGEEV
T3 sequence (P14416 whole entry): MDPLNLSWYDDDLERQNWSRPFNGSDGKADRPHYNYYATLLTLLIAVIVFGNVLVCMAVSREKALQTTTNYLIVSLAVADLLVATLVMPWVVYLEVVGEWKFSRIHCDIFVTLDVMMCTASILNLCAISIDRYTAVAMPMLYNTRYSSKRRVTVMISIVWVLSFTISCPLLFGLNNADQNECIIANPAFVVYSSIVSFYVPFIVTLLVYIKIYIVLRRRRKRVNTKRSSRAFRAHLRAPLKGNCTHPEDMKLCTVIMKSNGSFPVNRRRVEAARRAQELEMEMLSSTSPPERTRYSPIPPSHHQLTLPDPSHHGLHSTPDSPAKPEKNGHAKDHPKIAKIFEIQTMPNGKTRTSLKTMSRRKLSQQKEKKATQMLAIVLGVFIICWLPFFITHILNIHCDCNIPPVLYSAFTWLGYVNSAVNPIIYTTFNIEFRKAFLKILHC
Sequence of H1 (P35367 whole entry): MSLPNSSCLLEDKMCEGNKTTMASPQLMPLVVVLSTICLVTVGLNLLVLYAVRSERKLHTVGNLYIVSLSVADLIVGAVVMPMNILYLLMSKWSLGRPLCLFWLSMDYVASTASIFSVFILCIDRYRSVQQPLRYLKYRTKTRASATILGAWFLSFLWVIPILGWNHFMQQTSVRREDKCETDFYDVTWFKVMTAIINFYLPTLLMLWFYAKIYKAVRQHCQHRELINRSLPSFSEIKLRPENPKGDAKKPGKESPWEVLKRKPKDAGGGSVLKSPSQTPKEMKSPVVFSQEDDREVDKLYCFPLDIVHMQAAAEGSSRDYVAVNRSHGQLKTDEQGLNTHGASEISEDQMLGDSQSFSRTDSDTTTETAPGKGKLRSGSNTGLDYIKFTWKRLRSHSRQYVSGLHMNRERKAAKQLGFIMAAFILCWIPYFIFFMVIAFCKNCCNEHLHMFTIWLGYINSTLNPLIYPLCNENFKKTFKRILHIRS
T2 sequence (P48995 whole entry, one chain of several): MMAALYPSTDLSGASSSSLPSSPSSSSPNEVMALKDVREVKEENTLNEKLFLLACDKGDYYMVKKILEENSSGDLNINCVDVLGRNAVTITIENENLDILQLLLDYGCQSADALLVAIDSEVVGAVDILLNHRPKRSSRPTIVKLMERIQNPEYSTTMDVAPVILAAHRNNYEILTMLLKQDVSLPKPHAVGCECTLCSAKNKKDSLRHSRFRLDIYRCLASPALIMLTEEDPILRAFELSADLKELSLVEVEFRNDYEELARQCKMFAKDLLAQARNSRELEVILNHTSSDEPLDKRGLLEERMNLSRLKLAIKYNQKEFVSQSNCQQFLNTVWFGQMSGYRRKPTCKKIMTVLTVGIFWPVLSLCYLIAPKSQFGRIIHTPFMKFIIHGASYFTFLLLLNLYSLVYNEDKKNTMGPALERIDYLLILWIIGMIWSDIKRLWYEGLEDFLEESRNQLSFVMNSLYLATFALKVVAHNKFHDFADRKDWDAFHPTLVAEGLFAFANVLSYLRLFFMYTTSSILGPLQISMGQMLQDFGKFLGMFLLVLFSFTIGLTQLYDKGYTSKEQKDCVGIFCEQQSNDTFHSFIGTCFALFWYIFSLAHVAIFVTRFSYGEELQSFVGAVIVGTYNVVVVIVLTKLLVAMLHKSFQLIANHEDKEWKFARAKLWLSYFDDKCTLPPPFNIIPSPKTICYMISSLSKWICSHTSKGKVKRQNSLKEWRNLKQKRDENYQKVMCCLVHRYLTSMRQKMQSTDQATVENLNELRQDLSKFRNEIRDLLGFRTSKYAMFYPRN

In the case of `O=c1c2c3nc(n2Cc2ccc(Cl)cc2)Oc2ccc(F)c(c2)OCCCCCCn3c(=O)n1CCCO` [JDIC-127], the IC50 (TRPC5) is reported as 0.374 nM, the IC50 (TRPC1/5) is reported as 0.358 nM and the “Agonist JDIC-127 @10 μmol/L” value (α1A; agonist mode) is reported as 0.76%. The inhibition at 10 µM (α1A; antagonist mode, 10 μmol/L, read-out: Antagonist JDIC-127 @10 μmol/L) was -3.05%, the “Agonist JDIC-127 @10 μmol/L” value (D2; D2, agonist mode) was “–9.18%” and the inhibition at 10 µM (D2; D2, antagonist mode, 10 μmol/L, read-out: Antagonist JDIC-127 @10 μmol/L) was -1.55%. For the same compound, the “Agonist JDIC-127 @10 μmol/L” value (ETA; agonist mode) was 1.45%, the inhibition at 10 µM (ETA; antagonist mode, read-out: Antagonist JDIC-127 @10 μmol/L) was 2.63% and the “Agonist JDIC-127 @ 5 μmol/L” value (nAChRα4β2; nAChRα4β2, agonist mode) was 0.97%. The “Antagonist JDIC-127 @5 μmol/L” value (nAChRα4β2; nAChRα4β2, antagonist mode) was 2.92%, the inhibition at 10 µM (H1) was -3.39% and the “Antagonist JDIC-127 @5 μmol/L” value (hERG) was 19.40%.
